Here are results for 3 compounds from patent US4126686A, “Analgesic 3-(3-methyl-3-butenyl)-1,2,3,4,5,6-hexahydro-6,11-dimethyl-8-hydroxy-2,6 -methano-3-benzazocine” (priority 1976, dated 1978).

Series [1] has as its system male mice of the dd strain. The experiment in a line: animal or person. The class given is in vivo, mouse (male. As to conditions: tail flick, mouse, subcutaneous administration. As to the method: (II) Analgesic activity by Tail Flick method:
The experiment is carried out according to the method of Tail Flick (D'Amour-Smith method) [J. Pharmacol., 72, 74 (1941)].
A light beam of an infrared lamp (100 V; 250W) is passed through a hole having a diameter of a half inch and is irradiated onto the end of the tail of each mouse (male dd strain; weight: 19-21 g) to effect a heat stimulation. […] The compound of formula (I), pentazocine or morphine is administered subcutaneously to the mice. At 15, 30, 60, 90 and 120 minutes after the administration, the heat stimulation is repeatedly carried out to the mice in a similar manner to that described above and after each heat stimulation the time until the flick reaction occurs is measured. […] ED50 is calculated according to the above-mentioned method of Litchfield and Wilcoxon.

For series [2], the system named is male rats of the Wistar strain. The experiment in a line: Analgesic activity by bradykinin method. It is filed as in vivo, rat (male. The conditions noted are these: rat. As to the method: (IV) Analgesic activity by bradykinin method:
The experiment is carried out according to the method of Abe et al [Nihon Yakuri Gakkai Si (J. Japanese Pharmacological Academy) 67, 9 (1971)].
(§1) In this experiment, male rats of the Wistar strain weighing 210-260 g were used in groups, each consisting of 10 rats. A cannula is inserted into the right carotid artery of the rat anesthetized with ether. After recovering completely from ether anesthesis, 0.2 ml of a physiological salt solution containing bradykinin in an amount of about 2 μg/ml is injected retrogradely to the rat through the cannula. […] The compound of formula (I), pentazocine or morphine is administered subcutaneously or orally to the rat. At 15, 30, 60, 90 and 120 minutes after the administration of the test compound, bradykinin is injected repeatedly to the rat in a similar manner to that described above. […] ED50 is calculated according to the method of Litchfield and Wilcoxon [J. Pharmacol. & Exper. Therap., 96, 99 (1949 )].

The test system of series [3] is male mice of the dd strain. The experiment in a line: Analgesic activity by acetic acid writhing method. The class given is in vivo, mouse (male. As to conditions: mouse. As to the method:
(I) Analgesic activity by acetic acid writhing method:
The experiment is carried out according to the method of Koster et al [Fed. Proc., 18, 412 (1959)].
Male mice of the dd strain weighing 19-21 g are used in groups, each consisting of 10 mice. The test compounds, i.e. the compound of formula (I), pentazocine and morphine are administered subcutaneously or orally to the test mice. Immediately after this, 0.2 ml of a 0.7% (v/v) aqueous solution of acetic acid is administered intraperitoneally to the test mice except those which has been administered orally with morphine, to which 0.2 ml of a 0.7% (v/v) aqueous solution of acetic acid is administered intraperitoneally at 15 minutes after a morphine administration. […] At 10 minutes after the administration of acetic acid, the number of writhes is counted for 10 minutes. […] ED50 is calculated according to the method of Litchfield and Wilcoxon [J. Pharmacol. & Exper. Therap., 96, 99 (1949)].
Background: An intraperitoneal irritant provokes the stretching counted in writhing tests.

The test system of series [4] is male mice of the dd strain. The experiment in a line: Analgesic activity by tail pinch method. The class given is in vivo, mouse (male. As to conditions: mouse. The procedure:
(III) Analgesic activity by tail pinch method:
The experiment is carried out according to the method of H. Takagi et al [Jap. J. Pharmacol., 16, 287 (1966)].
In this experiment, male mice of the dd strain weighing 19-21 g are used in groups, each consisting of 10 mice. Before the experiment, animals which are sensitive to pressure stimulation are selected in the following manner.
The compound of formula (I), pentazocine or morphine is administered subcutaneously or orally to the selected mice. At 15, 30, 60, 90, and 120 minutes after the administration, an artery clip is repeatedly applied to the root of the tail of each mouse. […] ED50 is calculated according to the method of Litchfield and Wilcoxon [J. Pharmacol. & Exper. Therap., 96, 99 (1949)].

Series [5] in a line: Acute toxicity (LD50) in mice. Also on record: species or system mouse (male, dd strain). The conditions noted are these: in vivo, mouse, observed one week. The procedure:
(§2) The LD50 is calculated according to the method of Litchfield and Wilcoxon [J. of Pharmacol. and Exper. Therap., 96, 99 (1949)]. Male mice of the dd strain weighing 19-21 g and male rats of the Wistar strain weighing 80-100 g are used. One group consists of 10 mice or 10 rats. The compound of formula (I) and pentazocine are administered subcutaneously or orally to the test animals which are observed for one week.

Series [6] in a line: Margin of safety (R = LD50/ED50), acetic acid writhing, mouse. The conditions noted are these: in vivo. As to the method: as §2
Male mice of the dd strain weighing 19-21 g are used in groups, each consisting of 10 mice. The test compounds, i.e. the compound of formula (I), pentazocine and morphine are administered subcutaneously or orally to the test mice. Immediately after this, 0.2 ml of a 0.7% (v/v) aqueous solution of acetic acid is administered intraperitoneally to the test mice except those which has been administered orally with morphine, to which 0.2 ml of a 0.7% (v/v) aqueous solution of acetic acid is administered intraperitoneally at 15 minutes after a morphine administration. The mice of a control group are not administered with the test compounds but with only the acetic acid solution in a similar manner to that described above. At 10 minutes after the administration of acetic acid, the number of writhes is counted for 10 minutes. When the writhing numbers of the test group decrease to below 50% of the corresponding numbers of the control group, the test compound is determined to be analgesically active. ED50 is calculated according to the method of Litchfield and Wilcoxon [J. Pharmacol. & Exper. Therap., 96, 99 (1949)].
The usefulness of the compound as medicament is expressed by margin of safety (R) of the compound which is calculated by (LD50 /ED50). Compounds having higher R are deemed to be more useful as medicament than those having lower R. The margins of safety of the compound of formula (I) and pentazocine are shown in Table 6.

A short description of series [7]: Margin of safety (R = LD50/ED50), bradykinin, rat. The conditions noted are these: in vivo, sc, S.C. in rat. As to the method:
as §2, §1
The usefulness of the compound as medicament is expressed by margin of safety (R) of the compound which is calculated by (LD50 /ED50). […]

Series [8] can be described thus: Acute toxicity (LD50) in rats. Also on record: species or system rat (male, Wistar strain). The conditions noted are these: in vivo, rat, observed one week. As to the method:
as §2

Series [9] is described as follows: Analgesic activity compared with pentazocine (general statement). The class given is in vivo. As to conditions: in words.
[10] abbreviates: oral administration, read-out: ED50.
The mark [11] stands for this setting: sc, subcutaneous administration, read-out: ED50.
The mark [12] stands for this setting: sc, subcutaneous administration.

Where two headings read alike, the source gives them in different places.

As a reminder, the ED50 is the dose at which the effect has come halfway, by size or by number of responders. In the case of `CN1CC[C@]23c4c5ccc(O)c4O[C@H]2[C@@H](O)C=C[C@H]3[C@H]1C5` [Morphine, morphine], the ED50 is recorded as 5.2 mg/kg in series [1]; 85 mg/kg in series [2] (oral administration); 4.8 mg/kg in series [2] (subcutaneous administration); 5.1 mg/kg in series [3] (oral administration); 0.56 mg/kg in series [3] (subcutaneous administration); 35.5 mg/kg in series [4] (oral administration). In addition, in series [4] (subcutaneous administration), the ED50 is listed as 3.5 mg/kg.
As a reminder, the LD50 is the dose expected to kill half of the subjects tested. For `CC(C)=CCN1CCC2(C)c3cc(O)ccc3CC1C2C` (stereo not drawn) [Pentazocine, 3-(3-methyl-2-butenyl)-1,2,3,4,5,6-hexahydro-6,11-dimethyl-8-hydroxy-2,6-methano-3-benzazocine], the ED50 in series [1] (sc, read-out: ED50) was more than 40 mg/kg; in series [2] (setting [10]), more than 100 mg/kg; in series [2] (setting [11]), 10.5 mg/kg; in series [3] (setting [10]), 82 mg/kg; in series [3] (setting [11]), 3.45 mg/kg; in [4] (setting [10]), more than 40 mg/kg. Moreover, in series [4] (setting [11]), the ED50 was more than 40 mg/kg. Further, the LD50 at 168 h in series [5] (setting [12]) was 140 mg/kg; in [5] (oral administration) it was 305 mg/kg; in series [8] (setting [12]), 165 mg/kg; in series [8] (oral administration), more than 400 mg/kg. The selectivity ratio worked out at 3.7 in series [6] (po, P.O. in mouse); 40.6 in series [6] (sc, S.C. in mouse); 15.7 in series [7].
Take `C=C(C)CCN1CCC2(C)c3cc(O)ccc3CC1C2C` (stereo not drawn) [Compound of formula (I), 3-(3-methyl-3-butenyl)-1,2,3,4,5,6-hexahydro-6,11-dimethyl-8-hydroxy-2,6-methano-3-benzazocine]: the ED50 in [1] (sc, read-out: ED50) was 0.76 mg/kg; in [2] (setting [10]) it was 35 mg/kg; in series [2] (setting [11]) it was 0.38 mg/kg; in [3] (setting [10]), 14.3 mg/kg; in series [3] (setting [11]) it was 0.09 mg/kg; in series [4] (setting [10]), 29.3 mg/kg. Also, the ED50 in [4] (setting [11]) came out at 0.51 mg/kg. Also, in series [9], the analgesic activity entry is “unexpectedly a better analgesic activity than the known pentazocine”. Moreover, the LD50 at 168 h in series [5] (setting [12]) is 80 mg/kg; in series [5] (oral administration), 205 mg/kg; in series [8] (setting [12]), 61 mg/kg; in series [8] (oral administration), more than 300 mg/kg. In addition, the selectivity ratio in [6] (po, P.O. in mouse) was 14.3; in series [6] (sc, S.C. in mouse), 889; in series [7], 161.
